According to ChEMBL document CHEMBL1201862, “PubChem BioAssay data set” (2004):
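Protocol summary: plate cells (96-well), add compound at 5 concentrations, incubate 48 h, interpolate endpoints linearly. Here, GI50 denotes the concentration required for 50% inhibition of growth.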 Active and inactive are the calls of the source. Cut-off read from the data, not from the text of the source: active = GI50 up to about 1.1 µM and inactive = higher.

How the values were obtained:
Assay in all cases: NCI anticancer screen, dose series, 48 h
Malme-3M = test system: Malme-3M
HCT-116 = test system: HCT-116
NCI-H226 = test system: NCI-H226
BT-549 = test system: BT-549
OVCAR-8 = test system: OVCAR-8
SK-MEL-5 = test system: SK-MEL-5
786-0 = test system: 786-0
NCI-H23 = test system: NCI-H23
HOP-92 = test system: HOP-92
KM12 = test system: KM12
A498 = test system: A498
IGROV-1 = test system: IGROV-1
A549 = test system: A549
SK-OV-3 = test system: SK-OV-3
M14 = test system: M14
MDA-N = test system: MDA-N
HOP-62 = test system: HOP-62
RXF 393 = test system: RXF 393
SR = test system: SR

Compound | GI50 (Malme-3M) | GI50 (HCT-116) | GI50 (NCI-H226) | GI50 (BT-549) | GI50 (OVCAR-8) | GI50 (SK-MEL-5) | GI50 (786-0) | GI50 (NCI-H23) | GI50 (HOP-92) | GI50 (KM12) | GI50 (A498) | GI50 (IGROV-1) | GI50 (A549) | GI50 (SK-OV-3) | GI50 (M14) | GI50 (MDA-N) | GI50 (HOP-62) | GI50 (RXF 393) | GI50 (SR)
CC1=C(C(=O)N(C)c2ccc(Cl)c(C(=O)OC(C)C)c2)SCCO1 | 72.3 µM (inactive) | 59.2 µM (inactive) | 44.6 µM (inactive) | 40.9 µM (inactive) | 70.6 µM (inactive) | 29.6 µM (inactive) | > 100 µM (inactive) | 44.2 µM (inactive) | > 100 µM (inactive) | 55 µM (inactive) | 74.3 µM (inactive) | 98.6 µM (inactive) | 90.2 µM (inactive) | > 100 µM (inactive) | > 100 µM (inactive) |  |  |  | 
COc1ccc2[nH]c3c(c2c1)CC(=O)N1CCCC(CC3O)C1 (stereo not given) | > 100 µM (inactive) | > 100 µM (inactive) | > 100 µM (inactive) | > 100 µM (inactive) | > 100 µM (inactive) | > 100 µM (inactive) | > 100 µM (inactive) | > 100 µM (inactive) | > 100 µM (inactive) | > 100 µM (inactive) | > 100 µM (inactive) | > 100 µM (inactive) | > 100 µM (inactive) | > 100 µM (inactive) |  | > 100 µM (inactive) |  |  | 
O=[N+]([O-])CC(SCc1ccccc1)c1ccc2c(c1)OCO2 (stereo not given) | 14.9 µM (inactive) | 1.69 µM (inactive) | 7.91 µM (inactive) |  | 8.49 µM (inactive) | 12.2 µM (inactive) | 1.68 µM (inactive) | 7.19 µM (inactive) | 3.79 µM (inactive) | 6.84 µM (inactive) | 6.98 µM (inactive) | 5.6 µM (inactive) | 7.67 µM (inactive) | 15.1 µM (inactive) | 5.6 µM (inactive) | 2.45 µM (inactive) | 17.4 µM (inactive) | 1.82 µM (inactive) | 3.13 µM (inactive)
C[C@@H]1C(=O)O[C@@H]2C[C@@]1(C)[C@@H]1C(=O)C3(O)OC14C2(C)OC(=O)[C@@]4(O)CCC1C3C(O)C=C2CC=CC(=O)[C@@]21C (stereo not given in full) |  | 20.7 µM (inactive) |  |  | 31.3 µM (inactive) | 33 µM (inactive) | 33.1 µM (inactive) |  |  | 26.6 µM (inactive) |  | 42.3 µM (inactive) | 40.8 µM (inactive) | 47 µM (inactive) | 21.6 µM (inactive) | 28.9 µM (inactive) | 63.5 µM (inactive) | 13.8 µM (inactive) | 18.2 µM (inactive)
CNC(=O)OCC1=C(COC(=O)NC)C(C)N(c2ccc(OC)cc2)C1 (stereo not given) | > 100 µM (inactive) | > 100 µM (inactive) | 1.18 µM (inactive) | > 100 µM (inactive) | 80.4 µM (inactive) | > 100 µM (inactive) | 57 µM (inactive) | 68.9 µM (inactive) | > 100 µM (inactive) | > 100 µM (inactive) | 0.351 µM (active) | 29 µM (inactive) | > 100 µM (inactive) | > 100 µM (inactive) | 69.5 µM (inactive) |  | 40.3 µM (inactive) | 54.6 µM (inactive) | 15.7 µM (inactive)
O=[N+]([O-])C(/C=C(\Cl)[N+](=O)[O-])=C(N1CCCCC1)N1CCCCC1 | 9.44 µM (inactive) | 21.7 µM (inactive) | 56.5 µM (inactive) |  | 44.8 µM (inactive) | 21.7 µM (inactive) | 36.6 µM (inactive) | 32.9 µM (inactive) | > 100 µM (inactive) | > 100 µM (inactive) | 41.4 µM (inactive) | 21.9 µM (inactive) | 15.6 µM (inactive) | > 100 µM (inactive) | 20.1 µM (inactive) | 22.4 µM (inactive) | 39.6 µM (inactive) | 49.4 µM (inactive) | 14.1 µM (inactive)
CCOP(=O)(OCC)C(c1ccc(F)cc1)N(C(=O)NC(F)(F)F)c1ccc(OC)cc1 (stereo not given) | > 100 µM (inactive) | > 100 µM (inactive) | > 100 µM (inactive) |  | > 100 µM (inactive) | > 100 µM (inactive) | > 100 µM (inactive) | > 100 µM (inactive) |  | > 100 µM (inactive) |  | > 100 µM (inactive) | > 100 µM (inactive) |  | > 100 µM (inactive) | > 100 µM (inactive) | > 100 µM (inactive) | > 100 µM (inactive) | > 100 µM (inactive)
COC(=O)c1c2c(c(-c3ccccc3)c3c1-c1nc(Cl)ccc1CC3)CCc1ccc(Cl)nc1-2 | > 100 µM (inactive) | 77.6 µM (inactive) | 52.6 µM (inactive) |  | 65.2 µM (inactive) | > 100 µM (inactive) | > 100 µM (inactive) | > 100 µM (inactive) | 42.2 µM (inactive) | > 100 µM (inactive) | > 100 µM (inactive) | > 100 µM (inactive) | > 100 µM (inactive) | > 100 µM (inactive) | > 100 µM (inactive) |  | > 100 µM (inactive) | 47.5 µM (inactive) | > 100 µM (inactive)
COC(=O)[C@@H]1CN(C(=O)c2ccccc2)C(=O)N1C(=O)OCc1ccccc1 | > 100 µM (inactive) | > 100 µM (inactive) | > 100 µM (inactive) |  | > 100 µM (inactive) | > 100 µM (inactive) | > 100 µM (inactive) | > 100 µM (inactive) | > 100 µM (inactive) | > 100 µM (inactive) | > 100 µM (inactive) | > 100 µM (inactive) | > 100 µM (inactive) | > 100 µM (inactive) | > 100 µM (inactive) | > 100 µM (inactive) | > 100 µM (inactive) | > 100 µM (inactive) | > 100 µM (inactive)
N#CCCN(CCC#N)c1ccc(/C=C2\N=C(c3ccccc3)N(c3ccc(C(=O)O)cc3)C2=O)cc1 |  | 33.7 µM (inactive) | 27.9 µM (inactive) | 24.4 µM (inactive) | 26.2 µM (inactive) | 36.6 µM (inactive) | 52 µM (inactive) |  | 6.28 µM (inactive) | 17.2 µM (inactive) | > 100 µM (inactive) | 20.3 µM (inactive) | > 100 µM (inactive) | > 100 µM (inactive) | 72.1 µM (inactive) | > 100 µM (inactive) | > 100 µM (inactive) | 40.7 µM (inactive) | 
O=c1c2ccccc2nc2n1C(c1ccc([N+](=O)[O-])cc1)C2(c1ccccc1)c1ccccc1 (stereo not given) | > 100 µM (inactive) | > 100 µM (inactive) |  | > 100 µM (inactive) | > 100 µM (inactive) | > 100 µM (inactive) | > 100 µM (inactive) | > 100 µM (inactive) | > 100 µM (inactive) | > 100 µM (inactive) | > 100 µM (inactive) | > 100 µM (inactive) | 12.9 µM (inactive) | > 100 µM (inactive) | > 100 µM (inactive) | > 100 µM (inactive) | > 100 µM (inactive) | > 100 µM (inactive) | 
O=C(O)c1cccc2cccc(-c3cccc4cccc(C(=O)O)c34)c12 | > 100 µM (inactive) | > 100 µM (inactive) | > 100 µM (inactive) | > 100 µM (inactive) | > 100 µM (inactive) | > 100 µM (inactive) | > 100 µM (inactive) | > 100 µM (inactive) |  | > 100 µM (inactive) | > 100 µM (inactive) | > 100 µM (inactive) | > 100 µM (inactive) | > 100 µM (inactive) | > 100 µM (inactive) | > 100 µM (inactive) | > 100 µM (inactive) | > 100 µM (inactive) | 
O=S(=O)(c1ccc(Cl)cc1)c1ccccc1C1=NCCN1 | > 100 µM (inactive) | > 100 µM (inactive) | > 100 µM (inactive) | > 100 µM (inactive) | > 100 µM (inactive) | > 100 µM (inactive) | > 100 µM (inactive) | > 100 µM (inactive) |  | > 100 µM (inactive) |  | > 100 µM (inactive) | > 100 µM (inactive) | > 100 µM (inactive) | > 100 µM (inactive) | > 100 µM (inactive) | > 100 µM (inactive) | > 100 µM (inactive) | 
CCCCCCc1cc2cc(-c3cn4c(n3)sc3ccccc34)c(=O)oc2cc1O | 2.36 µM (inactive) | > 95.1 µM (inactive) | > 100 µM (inactive) | > 100 µM (inactive) | 5.82 µM (inactive) | > 100 µM (inactive) | > 31.6 µM (inactive) | > 100 µM (inactive) | > 100 µM (inactive) | > 26.9 µM (inactive) |  | > 100 µM (inactive) | > 100 µM (inactive) | > 100 µM (inactive) | 4.94 µM (inactive) |  | 73.1 µM (inactive) | > 48.3 µM (inactive) | > 29.8 µM (inactive)
Cc1ccc(C(=O)Nc2ccc(CP(=O)(O)O)cc2CP(=O)(O)O)cc1NC(=O)c1cccc(NC(=O)Nc2cccc(C(=O)Nc3cc(C(=O)Nc4ccc(CP(=O)(O)O)cc4CP(=O)(O)O)ccc3C)c2)c1 | > 100 µM (inactive) | > 100 µM (inactive) | > 100 µM (inactive) | > 100 µM (inactive) | > 100 µM (inactive) | > 100 µM (inactive) | > 100 µM (inactive) | > 100 µM (inactive) |  | > 100 µM (inactive) | > 100 µM (inactive) | > 100 µM (inactive) | > 100 µM (inactive) | > 100 µM (inactive) | > 100 µM (inactive) | > 100 µM (inactive) | > 100 µM (inactive) | > 100 µM (inactive) | 
CC(C)=CCNc1nc(Cl)nc2[nH]cnc12 | 86.9 µM (inactive) | 24.7 µM (inactive) | > 100 µM (inactive) |  | 46.5 µM (inactive) | 29.3 µM (inactive) | 49.4 µM (inactive) | 56.6 µM (inactive) | 35 µM (inactive) | > 100 µM (inactive) | 44 µM (inactive) | > 100 µM (inactive) | 28.8 µM (inactive) | 16.4 µM (inactive) | > 100 µM (inactive) | > 100 µM (inactive) | 27.9 µM (inactive) | 25.2 µM (inactive) | 37 µM (inactive)
